Source: the supplement of paper PMC5908809

Legend:
[1] = test system: normal NK cells expanded with K562-aAPC; assay: percent inhibition of viability; higher = more inhibition; conditions: 72 h, IL-2 2.5 ng/mL
Protocol: (§1)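 Drug sensitivity and resistance testing on K562-aAPC-expanded normal NK cells: 5 concentrations (10-fold steps over a 10,000-fold range), 72 h at 37 °C, viability by CellTiter-Glo normalised to DMSO and benzethonium chloride controls; DSS from the fitted curve.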

DERL-7 (IL-2 2.5 ng/mL) [2] = assay: as above; conditions: 72 h
IMC-1 (IL-2 20 ng/mL) [3] = assay: as above; conditions: 72 h
KAI3 (IL-2 2.5 ng/mL) [4] = assay: as above; conditions: 72 h
KHYG-1 (IL-2 2.5 ng/mL) [5] = assay: as above; conditions: 72 h
NK-92 (IL-2 2.5 ng/mL) [6] = assay: as above; conditions: 72 h
NK-YS (IL-2 2.5 ng/mL) [7] = assay: as above; conditions: 72 h
NKL (IL-2 2.5 ng/mL) [8] = assay: as above; conditions: 72 h
SNK-6 (IL-2 2.5 ng/mL) [9] = assay: as above; conditions: 72 h
YT (IL-2 2.5 ng/mL) [10] = assay: as above; conditions: 72 h
[11] = test system: normal primary NK cells, pool 1 (3 donors) (IL-2 2.5 ng/mL); assay: as above; conditions: 72 h
[12] = test system: normal primary NK cells, pool 1 (3 donors), resting (IL-2 0 ng/mL); assay: as above; conditions: 72 h
[13] = test system: normal primary NK cells, pool 2 (3 donors) (IL-2 2.5 ng/mL); assay: as above; conditions: 72 h
[14] = test system: normal primary NK cells, pool 3 (3 donors) (IL-2 2.5 ng/mL); assay: as above; conditions: 72 h
[15] = test system: normal NK cells expanded with K562-aAPC; assay: drug sensitivity score (DSS) (DSS units); higher = more sensitive; extreme values may be limits of the assay; conditions: 72 h; IL-2 2.5 ng/mL
Protocol: as §1

DERL-7 (IL-2 2.5 ng/mL) [16] = assay: as above; conditions: 72 h
IMC-1 (IL-2 20 ng/mL) [17] = assay: as above; conditions: 72 h
KAI3 (IL-2 2.5 ng/mL) [18] = assay: as above; conditions: 72 h
KHYG-1 (IL-2 2.5 ng/mL) [19] = assay: as above; conditions: 72 h
NK-92 (IL-2 2.5 ng/mL) [20] = assay: as above; conditions: 72 h
NK-YS (IL-2 2.5 ng/mL) [21] = assay: as above; conditions: 72 h
NKL (IL-2 2.5 ng/mL) [22] = assay: as above; conditions: 72 h
SNK-6 (IL-2 2.5 ng/mL) [23] = assay: as above; conditions: 72 h
YT (IL-2 2.5 ng/mL) [24] = assay: as above; conditions: 72 h
[25] = test system: normal primary NK cells, pool 1 (3 donors) (IL-2 2.5 ng/mL); assay: as above; conditions: 72 h
[26] = test system: normal primary NK cells, pool 1 (3 donors), resting (IL-2 0 ng/mL); assay: as above; conditions: 72 h
[27] = test system: normal primary NK cells, pool 2 (3 donors) (IL-2 2.5 ng/mL); assay: as above; conditions: 72 h
[28] = test system: normal primary NK cells, pool 3 (3 donors) (IL-2 2.5 ng/mL); assay: as above; conditions: 72 h

CCN1CCN(Cc2ccc(-c3cc4c(N[C@H](C)c5ccccc5)ncnc4[nH]3)cc2)CC1 [NVP-AEE788] (max concentration tested 2500 nM)
percent inhibition of viability [%]
Conditions	0.25 nM	2.5 nM	25 nM	250 nM	2500 nM
DERL-7 (IL-2 2.5 ng/mL) [2]	-0.87	0.92	1.23	5.24	19.9
IMC-1 (IL-2 20 ng/mL) [3]	-8.78	-2.35	1.14	-4.8	5.2
KAI3 (IL-2 2.5 ng/mL) [4]	-3.14	-7.58	-0.99	5.51	26.6
KHYG-1 (IL-2 2.5 ng/mL) [5]	-7.12	-8.65	-3.24	-0.41	22.7
NK-92 (IL-2 2.5 ng/mL) [6]	-16	-4.1	-2.66	13.6	51
NK-YS (IL-2 2.5 ng/mL) [7]	-8.61	-8.85	-3.03	-1.23	17.7
NKL (IL-2 2.5 ng/mL) [8]	-2.78	3.21	7.84	20	48.2
SNK-6 (IL-2 2.5 ng/mL) [9]	-12.2	-14.1	-23.9	-6.92	9.17
YT (IL-2 2.5 ng/mL) [10]	-6.59	-5.53	-3.48	7.61	27.4
[1]	-8.59	-5.81	-0.99	4.64	27.8
[11]	4.7	13.8	6.81	9.36	16.1
[12]	-1.29	14.4	9.7	11.1	5.88
[13]	-10.9	9.29	3.66	5.84	2.8
[14]	-4.61	9.35	9.18	5.89	-1.16

Conditions	drug sensitivity score
DERL-7 (IL-2 2.5 ng/mL) [16]	1.24
IMC-1 (IL-2 20 ng/mL) [17]	0
KAI3 (IL-2 2.5 ng/mL) [18]	1.9
KHYG-1 (IL-2 2.5 ng/mL) [19]	0.75
NK-92 (IL-2 2.5 ng/mL) [20]	4.8
NK-YS (IL-2 2.5 ng/mL) [21]	0.35
NKL (IL-2 2.5 ng/mL) [22]	4.63
SNK-6 (IL-2 2.5 ng/mL) [23]	0
YT (IL-2 2.5 ng/mL) [24]	2.2
[15]	1.88
[25]	0
[26]	0.04
[27]	0
[28]	0

Cn1c(=O)c(F)c(Nc2ccc(I)cc2F)c2c(=O)n(C[C@@H](O)CO)cnc21 [TAK-733] (max concentration tested 1000 nM)
percent inhibition of viability [%]
Conditions	0.1 nM	1 nM	10 nM	100 nM	1000 nM
DERL-7 (IL-2 2.5 ng/mL) [2]	3.05	13.4	23	41.5	47.2
IMC-1 (IL-2 20 ng/mL) [3]	-1.32	1.37	0.58	3.83	18.9
KAI3 (IL-2 2.5 ng/mL) [4]	2.03	4.38	17.2	23.1	29.4
KHYG-1 (IL-2 2.5 ng/mL) [5]	4.66	9.31	20.6	48.8	64.9
NK-92 (IL-2 2.5 ng/mL) [6]	3	0.98	-25.3	-5.54	19.1
NK-YS (IL-2 2.5 ng/mL) [7]	-2.42	2.48	3.61	10.7	25.6
NKL (IL-2 2.5 ng/mL) [8]	0.9	12	40.6	60.1	81.3
SNK-6 (IL-2 2.5 ng/mL) [9]	6	0.96	-6.2	3.19	-10.3
YT (IL-2 2.5 ng/mL) [10]	-3.29	0.91	1.73	6.99	14.3
[1]	-0.54	1.65	5.46	3.7	18.7
[11]	-3.53	3.59	5.44	11.3	7.77
[12]	-1.91	4.44	-3.15	-6.45	-3.7
[13]	-4.31	-4.06	11.2	17	13.8
[14]	-10.4	-14.4	-11.3	2.73	8.36

Conditions	drug sensitivity score
DERL-7 (IL-2 2.5 ng/mL) [16]	10.7
IMC-1 (IL-2 20 ng/mL) [17]	1
KAI3 (IL-2 2.5 ng/mL) [18]	5.51
KHYG-1 (IL-2 2.5 ng/mL) [19]	11.7
NK-92 (IL-2 2.5 ng/mL) [20]	0.33
NK-YS (IL-2 2.5 ng/mL) [21]	1.77
NKL (IL-2 2.5 ng/mL) [22]	17.2
SNK-6 (IL-2 2.5 ng/mL) [23]	0
YT (IL-2 2.5 ng/mL) [24]	0.35
[15]	0.89
[25]	0.17
[26]	0
[27]	2.88
[28]	0

C#Cc1cccc(Nc2ncnc3cc4c(cc23)OCCOCCOCCO4)c1 [Icotinib] (max concentration tested 10000 nM)
percent inhibition of viability [%]
Conditions	1 nM	10 nM	100 nM	1000 nM	10000 nM
DERL-7 (IL-2 2.5 ng/mL) [2]	-3.69	4.28	2.21	-3.13	21.1
IMC-1 (IL-2 20 ng/mL) [3]	-2.8	-2.04	2.45	1.87	17.3
KAI3 (IL-2 2.5 ng/mL) [4]	0.88	-3.16	3.15	-4.22	15.3
KHYG-1 (IL-2 2.5 ng/mL) [5]	2.44	3.1	7.32	5.9	20.9
NK-92 (IL-2 2.5 ng/mL) [6]	-11.7	-6.9	8.46	9.17	60.1
NK-YS (IL-2 2.5 ng/mL) [7]	1.39	-0.84	6.96	1.74	17.6
NKL (IL-2 2.5 ng/mL) [8]	-8.58	1.33	-2.78	-2.73	7.37
SNK-6 (IL-2 2.5 ng/mL) [9]	8.75	4.17	-5.78	8.65	12.1
YT (IL-2 2.5 ng/mL) [10]	-0.54	0.7	2.3	-0.04	20.5
[1]	-2.8	5.15	5.26	7.7	24.2
[11]	2.64	-2.92	-2.29	-5.75	8.93
[12]	3.19	-9.84	4.39	-8.23	35.6
[13]	-5.53	5.07	5.9	-0.93	18.9
[14]	-12.7	-5.94	3.15	-6.39	-5.24

Conditions	drug sensitivity score
DERL-7 (IL-2 2.5 ng/mL) [16]	0.52
IMC-1 (IL-2 20 ng/mL) [17]	0.61
KAI3 (IL-2 2.5 ng/mL) [18]	0.15
KHYG-1 (IL-2 2.5 ng/mL) [19]	0.85
NK-92 (IL-2 2.5 ng/mL) [20]	4.82
NK-YS (IL-2 2.5 ng/mL) [21]	0.62
NKL (IL-2 2.5 ng/mL) [22]	0
SNK-6 (IL-2 2.5 ng/mL) [23]	0.39
YT (IL-2 2.5 ng/mL) [24]	0.63
[15]	1.38
[25]	0
[26]	1.28
[27]	0.45
[28]	0
